Several values for one entry are separate records, joined by “and”; a condition that tells them apart may be missing. Identical values can stand only once.
Legend:
[1] = system: rabbit cartilage explants; assay: Inhibition of glycosaminoglycan (GAG) release, rabbit cartilage explants stimulated with rhIL-1α; format: cell-based; settings: for inhibition at 25 µg/mL: 25 μg/ml; for inhibition at 100 µg/mL: 100 μg/ml
Procedure: Articular cartilage from hock joints of rabbits (2.5 kg body weight) was removed immediately after each animal was sacrificed. The articular cartilage explants were obtained by following the method described by Sandy et al, 1986. Briefly, after the articular surfaces were exposed surgically under sterile conditions, approximately 200-220 mg articular surfaces per joint were dissected and submerged into complete medium (DMEM, supplemented with heat inactivated 5% FBS; penicillin 100 U/ml; streptomycin 100 μg/ml). They were then rinsed several times with the complete medium and incubated for 2 days at 37° C. in a humidified 5% CO2/95% air incubator for stabilization. The complete medium was replaced with a basal medium (DMEM, supplemented with heat-inactivated 1% FBS, 10 mM HEPES, and penicillin 100 U/ml streptomycin 100 μg/ml). Approximately 30 mg cartilage pieces (2×3×0.35 mm/piece) were placed in 48-well plates and treated with given concentrations of test agents. After pretreatment for 1 h, 5 ng/ml of rhIL-1α was added to the culture medium and further incubated at 37° C. in a humidified 5% CO2/95% air incubator. The culture medium was collected 24 h later and stored at −80° C. until assay.
The amount of sulphated GAGs in the medium at the end of the reaction, reflecting the amount of articular cartilage degradation, was determined through 1,9-dimethy-methylene blue method using commercially available kit (the Blyscan proteoglycan and glycosaminoglycan assay) according to the instructions of the manufacturer. Diclofenac was utilized as a positive control at 300 μg/ml.
Dose curves of Alpinia, Pepper, Magnolia, and Kochia plant extracts were tested on the ex vivo glycosaminoglycan (GAG) release assay as illustrated in previous example to assess their cartilage protection effects. Cartilage explants were pre-treated with each extract before being exposed to IL-1α, which caused degradation and the release of GAGs from the cartilage matrix.

Sprague Dawley rats = assay: Hot plate test, topical application, paw withdrawal latency; format: in vivo, rat; settings: for Paw withdrawal threshold (latency) Mean ± SD: in s (unit assumed); for increase in paw withdrawal latency as compared to vehicle: 5% concentration; for % Change: negative = increased paw withdrawal latency
Text: Repeated application of anti-inflammatory compounds or extracts topically at the site of thermal contact (noxious stimulus) may cause desensitization of the peripheral afferent pain receptors to produce a delay in response time. A longer change in reaction time could be interpreted as an anti-nociceptive effect of the applied compound. To evaluate whether prepared plant extracts and compositions could provide anti-nociceptive activity, rats received orally-active anti-inflammatory extracts formulated in 2% Aloe vera gel at 5% concentration topically on their hind paws. The applied preparations on each paw were massaged at least 60 times in a circular motion into the skin until the applied content appeared visually absorbed. The procedure was repeated 3 times, every 30 minutes, before placing the animals on a preheated hot plate set to 53° C. The paw withdrawal latency was calculated as the time elapsed from the initial placement of the rat onto the hotplate to the withdrawal (or licking or shaking) of the hind paw in response to the thermal stimulus. Animals were immediately removed when this response was observed.
The anti-pain activity of medicinal plant extracts was tested on a hot plate set at 53° C. Test materials at 5% concentrations were topically applied at 20 μl/paw to the hind paws of both right and left paws of Sprague Dawley rats (n=10 per group). Applications of these extracts were carried out every 30 minutes for a total of 90 minutes. Within these 90 minutes, rats received a total of 60 μl/paw of the test article per rat. At 5% concentration, each rat received 3 mg/paw of the test articles. Due to the solubility characteristics of the compounds, two types of vehicles, V1=Dimethyl sulfoxide (DMSO)+propylene glycol (PG)+Aloe (2%), and V2=DMSO+OIL+PG, were used. Percent changes and P-values for statistical significance were determined using respective vehicles for each test material. The vehicle used for each material has been indicated in the parenthesis next to the test material. […] These increases in anti-pain activity were statistically significant. […] This percent change was statistically significant when compared to its respective vehicle.

[2] = system: Carrageenan-induced paw edema in rats; assay: Carrageenan-induced paw edema in rats, paw edema (anti-inflammation); format: in vivo, rat
Procedure: (§1) Carrageenan-induced paw edema in rats was used to evaluate the anti-inflammatory and anti-pain activities of individual Alpinia, Pepper, Magnolia and Kochia extracts. Sprague Dawley (SD) rats (N=5 per group) were given Alpinia, Pepper, Magnolia and Kochia extracts at 300 mg/kg orally one hour […] intra-plantar injection of 100 μl carrageenan. Pain sensitivity and paw edema were monitored at T0 (before carrageenan) and 2, 4 and 6 hours after carrageenan. Ibuprofen as a positive control was used at 150 mg/kg.
(§2) Rats were gavaged with each constituent as they appeared in the 300 mg/kg of the AMK individually in order to determine whether the plant extracts acted synergistically. For the 2:4:3 ratio of AMK, rats were administered with 67 mg/kg of Alpinia extract, 133 mg/kg of Magnolia extract and 100 mg/kg of Kochia extract. The percent inhibition of pain and inflammation of the combined compositions at 300 mg/kg were compared with those dosages of individual extracts to find out potential additive, antagonistic or synergistic effects in combination using the Colby's equation.
(§3) The merit of combining Alpinia with Pepper for AP (1:2 ratio) was evaluated in the carrageenan rat paw edema model. Rats were gavaged with each constituent as they appeared in 300 mg/kg of the AP. For the 1:2 ratio of AP, 100 mg/kg of Alpinia and 200 mg/kg of Pepper extract were administered to the rats. The percent inhibition of pain and inflammation of the compositions at 300 mg/kg was compared with those dosages of individual extracts to find out potential additive, antagonistic or synergistic effects in combination using Colby's equation (Colby 1967). For the blending of these plant extracts to have unexpected synergy, the observed inhibition needed to be greater than the calculated value.

[3] = system: Carrageenan-induced paw edema in rats; assay: Carrageenan-induced paw edema in rats, pain sensitivity (anti-pain); format: in vivo, rat
Procedure: as §1, §2, §3

[4] = hot plate 53° C., topical, vehicle V1 (DMSO+PG+Aloe 2%), dose (%): Ibuprofen 5, Capsaicin 0.5, Diclofenac 1, others 5
[5] = vs vehicle V1, dose (%): Ibuprofen 5, Capsaicin 0.5, Diclofenac 1, others 5
[6] = 100 mg/kg oral, 1 hr after treatment
[7] = 100 mg/kg oral, 3 hr after treatment
[8] = 100 mg/kg oral, 5 hr after treatment
[9] = 150 mg/kg oral, 1 hr after treatment
[10] = 150 mg/kg oral, 3 hr after treatment
[11] = 150 mg/kg oral, 5 hr after treatment

Piperine
Inhibition of GAG release ([1]; 50 μg/ml): 98% | Paw withdrawal threshold (latency) Mean ± SD (Sprague Dawley rats; hot plate 53° C., topical, vehicle V2 (DMSO+OIL+PG), run 1, dose 5%): 7.97 ± 1.86 | increase in paw withdrawal latency as compared to vehicle (Sprague Dawley rats; topical, hot plate 53° C.): 32.6% | % Change (Sprague Dawley rats; vs vehicle V2 run 1, dose 5%): −32.6%

CC1(C)CCC2(C(=O)O)CCC3(C)C(=CCC4C5(C)CCC(OC6OC(C(=O)O)C(O)C(OC7OCC(O)C(O)C7O)C6O)C(C)(C)C5CCC43C)C2C1 (stereo not drawn) [Momordin lc]
inhibition at 25 µg/mL ([1]; Oryctolagus cuniculus): 84% | inhibition at 100 µg/mL ([1]; Oryctolagus cuniculus): 83%

COc1cc(CNC(=O)CCCC/C=C/C(C)C)ccc1O [Capsaicin]
Paw withdrawal threshold (latency) Mean ± SD (Sprague Dawley rats; [4]): 4.51 ± 1.12 | decrease in paw withdrawal latency compared to vehicle (Sprague Dawley rats; topical, hot plate 53° C.): 36.7% | % Change (Sprague Dawley rats; [5]): 36.7%

CC(C)Cc1ccc(C(C)C(=O)O)cc1 (stereo not drawn) [Ibuprofen]
Anti-inflammation Percent change vs vehicle [2, 6]: 50.07% and 45.00% and 51.0% | Anti-inflammation Percent change vs vehicle [2, 7]: 47.40% and 50.31% and 48.0% | Anti-inflammation Percent change vs vehicle [2, 8]: 37.28% and 41.84% and 39.0% | Paw edema, Average ([2]; 150 mg/kg oral, 1 hr): 1.43 | Anti-inflammation Percent change vs vehicle [2, 9]: 43.03% and 49.50% and 47.3% | Paw edema, Average ([2]; 150 mg/kg oral, 3 hr): 1.59 | Anti-inflammation Percent change vs vehicle [2, 10]: 48.38% and 48.62% and 49.7% | Paw edema, Average ([2]; 150 mg/kg oral, 5 hr): 1.77 | Anti-inflammation Percent change vs vehicle [2, 11]: 36.79% and 37.66% and 37.6% | Anti-pain Percent change vs vehicle [3, 6]: 50.51% and 48.44% and 50.5% | Anti-pain Percent change vs vehicle [3, 7]: 46.37% and 47.46% and 46.1% | Anti-pain Percent change vs vehicle [3, 8]: 37.42% and 37.77% and 38.5% | Pain sensitivity, Average ([3]; 150 mg/kg oral, 1 hr): 25.02 | Anti-pain Percent change vs vehicle [3, 9]: 46.49% and 50.51% and 44.4% | Pain sensitivity, Average ([3]; 150 mg/kg oral, 3 hr): 35.67 | Anti-pain Percent change vs vehicle [3, 10]: 45.85% and 46.37% and 47.9% | Pain sensitivity, Average ([3]; 150 mg/kg oral, 5 hr): 45.49 | Anti-pain Percent change vs vehicle [3, 11]: 33.55% and 37.42% and 30.8% | Paw withdrawal threshold (latency) Mean ± SD (Sprague Dawley rats; [4]): 8.73 ± 1.37 | Paw withdrawal threshold (latency) Mean ± SD (Sprague Dawley rats; hot plate 53° C., topical, vehicle V2 (DMSO+OIL+PG), run 2, dose 5%): 6.05 ± 1.98 | increase in paw withdrawal latency as compared to vehicle (Sprague Dawley rats; topical, hot plate 53° C.): 22.4% | % Change (Sprague Dawley rats; [5]): −22.4% | % Change (Sprague Dawley rats; vs vehicle V2 run 2, dose 5%): −23.98%

C=CCc1ccc(O)c(-c2cc(CC=C)ccc2O)c1 [Magnolol]
Inhibition of GAG release ([1]; 10 μg/ml): 97% | Inhibition of GAG release ([1]; 50 μg/ml): 97%

C=CCc1ccc(O)c(-c2ccc(O)c(CC=C)c2)c1 [Honokiol]
inhibition at 10 µg/mL ([1]; Oryctolagus cuniculus, 10 μg/ml): 104% | inhibition at 50 µg/mL ([1]; Oryctolagus cuniculus, 50 μg/ml): 119%

CC1CCC(C(C)C)C(O)C1 (stereo not drawn) [Menthol]
Paw withdrawal threshold (latency) Mean ± SD (Sprague Dawley rats; [4]): 6.05 ± 1.70 | % Change (Sprague Dawley rats; [5]): 15.1%

C=C[C@H](OC(C)=O)c1ccc(OC(C)=O)cc1 [1′-acetoxychavicol acetate]
inhibition at 25 µg/mL ([1]; Oryctolagus cuniculus): 99% | inhibition at 100 µg/mL ([1]; Oryctolagus cuniculus): 109%

CC(=O)OC/C=C/c1ccc(OC(C)=O)cc1 [p-coumaryl diacetate]
inhibition at 25 µg/mL ([1]; Oryctolagus cuniculus): 111% | inhibition at 100 µg/mL ([1]; Oryctolagus cuniculus): 138%
